Values joined by “and” are separate entries in the source; they are usually repeats but may differ in a detail not shown here. Identical values can stand only once.
System: primary blood monocytes
Assay: Multiplex xMAP cytokine levels, primary blood monocytes alone stimulated with LL-37
Assay type: cell-based, human
Details: 1 µM LL-37, 24 h
Protocol: Peripheral blood mononuclear cells (PBMCs) from a healthy donor were purchased from the American Type Culture Collection (ATCC PCS-800-011). Blood monocytes were isolated from PBMCs by plastic adhesion. Mature monocyte-derived dendritic cells (moDCs) were generated in vitro from peripheral blood monocytes, according to Nair et al.. Briefly, monocytes were cultured in a humidified CO2-incubator (5% CO2, 37 °C) in the complete RPMI-1640 medium (Gibco) with 10% FBS, antibiotics, and supplemented with a cytokine cocktail containing 500 U/mL rhIL-4 and 800 U/mL rhGM-CSF (both Sci-Store, Moscow, Russia). On the third day, the medium was replaced by the same fresh medium with FBS, antibiotics, and the cytokine cocktail. Induction of maturation of the immature monocyte-derived dendritic cells was performed on the 5th day by replacing the medium with the complete RPMI-1640 medium (Gibco) with 10% FBS and antibiotics, supplemented with a cytokine cocktail containing 500 U/mL rhIL-4, 800 U/mL rhGM-CSF (both Sci-Store, Moscow, Russia), and 100 U/mL rhTNF-α (Sigma-Aldrich), and subjected to subsequent incubation of the culture for 4 more days.
Primary blood monocytes, moDCs, and NKT cells were seeded in 600 µL of complete RPMI-1640 with 10% Human AB serum (Capricorn Scientific, Ebsdorfergrund, Germany) and supplemented with 1X antibiotic–antimycotic solution into the wells of 24-well plates at a density of 3–7 × 10^5 cells/well 24 h before the experiment. Then, 24 h later, the medium in each well was replaced by the same medium with 1 µM of LL-37 for the sample wells or fresh medium alone for the control wells, and the permeable inserts with the Caco-2 monolayer with TEER > 400 Ω × cm^2, containing 400 μL of the complete medium in their apical chamber, were immediately placed into the appropriate wells. Also, inserts with the Caco-2 monolayer were placed in cell-free wells of 24-well plates in the same complete RPMI-1640 medium with or without 1 µM of LL-37 as controls. Cells were kept in a CO2-incubator (5% CO2, 37 °C) for another 24 h. Then, culture medium from each well was collected, centrifuged, and frozen at −70 °C.
To quantitatively evaluate a broad spectrum of analytes secreted by human cell cultures at the protein level, multiplex xMAP technology was used. The chosen panel (cat. #HCYTA-60K-PX48, Merck, Darmstadt, Germany) included 48 different magnetic beads with primary antibodies to the following cytokines, chemokines, and growth factors: CCL11 (Eotaxin-1), Flt-3 ligand, CX3CL1 (Fractalkine), sCD40L, FGF-2, EGF, GROα, GM-CSF, G-CSF, IL-1RA, IL-1α, IL-1β, IL-2, IL-3, IL-4, IL-5, IL-6, IL-7, CXCL8 (IL-8), IL-9, IL-10, IL-12p40, IL-12p70, IL-13, IL-15, IL-17A (CTLA8), IL-17E (IL-25), IL-17F, IL-18, IL-22, IL-27, IFNγ, IFNα2, CXCL10 (IP-10), CCL2 (MCP-1), CCL7 (MCP-3), CCL22 (MDC), CXCL9 (MIG), CCL3 (MIP-1α), CCL4 (MIP-1β), CCL5 (RANTES), M-CSF, PDGF-AA, PDGF-AB/BB, TNFα, TNFβ, TGFα, and VEGF-A. The assay was performed in accordance with the manufacturer’s instructions with overnight incubation of the samples with primary antibodies, and the plate was read on a MAGPIX System (Merck) using the xPONENT 4.2 software (Merck). The acquired fluorescence data were analyzed by the MILLIPLEX Analyst v5.1 software (Merck), which realized an advanced curve-fitting algorithm. Levels of the analytes in control and experimental samples were compared with an unpaired two-sample t-test using GraphPad Prism v.8.0.1 (GraphPad Software, Inc., San Diego, CA, USA). The p-values ≤ 0.05 were considered significant.

## LL-37: the only human cathelicidin, host defense antimicrobial peptide of 37 a.a. residues, produced by solid-phase peptide synthesis
n=2, control 1.06
  RANTES level: 181.22 pg/mL
n=2, control 1.18
  FLT-3L level: 0.93 pg/mL
n=2, control 1.49
  IL-2 level: 0.99 pg/mL
n=2, control 1.74
  IL-18 level: 1.22 pg/mL
n=2, control 1.82
  IFNg level: 1.8 pg/mL
n=2, control 1.92
  IL-4 level: 1.63 pg/mL
n=2, control 2.18
  IL-17A level: 3.05 pg/mL
n=2, control 2.88
  IL-15 level: 1.82 pg/mL
n=2, control 3.83
  GM-CSF level: 4.97 pg/mL
n=2, control 4.84
  TGF-a level: 3.88 pg/mL
n=2, control 6.65
  IL-9 level: 6.65 pg/mL
n=2, control 10.12
  TNFb level: 11.76 pg/mL
n=2, control 15.98
  IFNa2 level: 11.65 pg/mL
n=2, control 18.24
  EGF level: 17.26 pg/mL
n=2, control 18.92
  IL-1a level: 25.51 pg/mL
n=2, control 22.54, p = 0.23
  IL-10 level: 23.6 pg/mL and 23.64 pg/mL
n=2, control 25.51
  IL-13 level: 23.32 pg/mL
n=2, control 25.75, p = 0.094
  IL-1b level: 32 pg/mL and 32.49 pg/mL
n=2, control 27.2
  IL-22 level: 27.2 pg/mL
n=2, control 28.72
  Fractalkine level: 25.92 pg/mL
n=2, control 32.5
  M-GSF level: 62.71 pg/mL
n=2, control 32.89
  IL-12 (p40) level: 37.68 pg/mL
n=2, control 35.58
  VEGFa level: 36.32 pg/mL
n=2, control 45.5, p = 0.0001
  MIP-1a level: 109 pg/mL and 109.63 pg/mL
n=2, control 52.5
  FGF-2 level: 47.27 pg/mL
n=2, control 62.71
  PDGF-AA level: 47.99 pg/mL
n=2, control 63.66
  IL-27 level: 67.29 pg/mL
n=2, control 78.19, p = 0.0004
  MIP-1b level: 2750 pg/mL
n=2, control 86.47
  IL-1RA level: 65.97 pg/mL
n=2, control 108.76
  sCD40L level: 102.18 pg/mL
n=2, control 110.45, p = 0.15
  TNFa level: 123 pg/mL and 123.49 pg/mL
n=2, control 121.45, p = 0.002
  G-CSF level: 220 pg/mL and 220.28 pg/mL
n=2, control 606.02, p = 0.003
  MIG level: 342 pg/mL and 342.19 pg/mL
n=2, control 1327
  PDGF-AB/BB level: 1070 pg/mL
n=2, control 1716
  IP-10 level: 11.29 pg/mL
n=2, control 3407
  MDC level: 3208 pg/mL
n=2, control 4145
  IL-6 level: 4861 pg/mL
n=2, control 4963
  MCP-3 level: 3343 pg/mL
n=2, control 5512
  GROa level: 5987 pg/mL
n=2, control 8325
  MCP-1 level: 7953 pg/mL
n=2, control <0.30
  IL-7 level: <0.30↓ pg/ml
n=2, control <0.35
  IL-5 level: <0.35↓ pg/ml
n=2, control <0.55
  IL-3 level: <0.55↓ pg/ml
n=2, control <1.71
  IL-12 (p70) level: <1.71↓ pg/ml
n=2, control <2.91
  Eotaxin level: <2.91↓ pg/ml
n=2, control <12.19
  IL-17F level: <12.19↓ pg/ml
n=2, control <19.43
  IL-17E/IL-25 level: <19.43↓ pg/ml
n=2, control >21942
  IL-8 level: >21942↑ pg/ml

Source: PMC10526274, “Epithelial-Immune Cell Crosstalk Determines the Activation of Immune Cells In Vitro by the Human Cathelicidin LL-37 at Low Physiological Concentrations” (Biomolecules, 2023)
